Results: patent US7238716B2, “Alkanoic acid derivatives process for their production and use thereof” (Takeda Pharmaceuticals Company Limited, priority 2000, dated 2007)
Read-outs that look alike come from different tables or passages of the source.

Legend:
PPARγ-RXRα heterodimer = target: T1, PPARγ-RXRα heterodimer (Homo sapiens, UniProt P37231); assay: PPARγ-RXRα heterodimer ligand activity, luciferase reporter in PPARγ:RXRα:4ERPP/CHO-K1 cells (Test Example 3); type: cell-based; settings: concentration for 50% of the maximum fold induction of luciferase activity; 48 hours, CHO-K1 cells
T1 construct: expressed in transfected cells; host or cells: CHO-K1
T1 sequence (P37231 1-477 isoform P37231-2): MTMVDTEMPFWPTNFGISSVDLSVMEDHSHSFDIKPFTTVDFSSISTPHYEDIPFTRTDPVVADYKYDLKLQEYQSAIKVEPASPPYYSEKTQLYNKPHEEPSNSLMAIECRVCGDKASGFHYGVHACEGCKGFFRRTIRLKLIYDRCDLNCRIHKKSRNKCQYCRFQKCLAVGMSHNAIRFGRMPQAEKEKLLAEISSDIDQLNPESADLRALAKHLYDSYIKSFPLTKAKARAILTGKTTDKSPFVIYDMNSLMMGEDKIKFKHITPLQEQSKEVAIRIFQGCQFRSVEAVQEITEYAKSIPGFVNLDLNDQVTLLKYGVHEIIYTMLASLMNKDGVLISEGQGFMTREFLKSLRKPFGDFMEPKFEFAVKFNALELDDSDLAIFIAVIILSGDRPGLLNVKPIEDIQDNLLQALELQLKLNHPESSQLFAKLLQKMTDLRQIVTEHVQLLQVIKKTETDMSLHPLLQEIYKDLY
T1 sequence (P19793 1-462 partner): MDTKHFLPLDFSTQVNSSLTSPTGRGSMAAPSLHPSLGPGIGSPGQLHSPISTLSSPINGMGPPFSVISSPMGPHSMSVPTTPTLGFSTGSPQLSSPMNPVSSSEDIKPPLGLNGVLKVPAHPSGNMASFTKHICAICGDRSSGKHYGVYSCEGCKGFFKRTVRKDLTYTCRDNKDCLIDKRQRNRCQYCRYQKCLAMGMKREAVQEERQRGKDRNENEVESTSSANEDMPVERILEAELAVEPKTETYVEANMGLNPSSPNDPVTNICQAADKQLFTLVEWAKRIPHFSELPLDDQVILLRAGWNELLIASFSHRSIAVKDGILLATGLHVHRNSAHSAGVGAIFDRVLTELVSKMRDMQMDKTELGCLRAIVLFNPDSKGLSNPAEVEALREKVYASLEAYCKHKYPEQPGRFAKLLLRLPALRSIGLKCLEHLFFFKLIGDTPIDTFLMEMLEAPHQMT
Description: A PPARγ:RXRα:4ERPP/CHO-K1 cells obtained in Reference Example 5 described later were cultured in HAM F12 medium (produced by NISSUI SEIYAKU) containing 10% Fetal bovine serum (produced by Life Technologies, Inc., USA) and then inoculated to a 96-well white plate (produced by Corning Costar Corporation, USA) at the density of 2×10^4 cells/well, and cultured in a CO2 gas incubator at 37° C. overnight.
After washing the 96 well white plate with PBS (Phosphate-buffered saline), 90 μl of HAM F12 medium containing 0.1% fatty acid-free bovine serum albumin (BSA) and 10 μl of test compound were added, which was cultured in a CO2 gas incubator at 37° C. for 48 hours. After removing the medium, 40 μl of PIKKAGENE 7.5 (produced by Wako Pure Chemical Industries, Ltd.) was added. After stirring, the luciferase activity was determined using Lumistar (produced by BMG Labtechnologies GmbH, Germany).
A fold induction was calculated based on the luciferase activity of each test compound by taking the luciferase activity in the test compound non administration group as 1. The values of the test compound, concentration and the fold induction were analyzed using PRISM 2.01 (produced by GraphPad Software Inc. USA) to calculate the EC50 values, the effective concentration of a test compound for 50% of the maximum fold induction.
After a CHO-K1 cell cultured in a 750 ml tissue culture flask (produced by Corning-Costar Corporation, USA) containing HAM F12 medium (produced by NISSUI SEIYAKU) supplemented with 10% Fetal Bovine Serum (produced by Life Technologies, Inc., USA) was scraped by treating with 0.5 g/L trypsin-0.2 g/L EDTA (ethylenediaminetetraacetic acid) (produced by Life Technologies, Inc., USA), the cell was washed with PBS (phosphate buffered saline) (produced by Life Technologies, Inc., USA), centrifuged (1000 rpm, 5 minutes), and then suspended in PBS. Subsequently, a DNA was introduced into the cell under the condition shown below using GENE PULSER (produced by Bio-Rad Laboratories, USA).
Namely, to a cuvette having a 0.4 cm gap, added were 8×10^6 cells and 10 μg of plasmid pVgRXR2-hPPARγ obtained in Reference Example 3 and 10 μg of reporter plasmid pGL3-4ERPP-TK neo obtained in Reference Example 4, which was subjected to electroporation at the voltage of 0.25 kV under the capacitance of 960 μF. Subsequently, the cell was transferred into a HAM F12 medium containing 10% Fetal Bovine. Serum and cultured for 24 hours. Then the cell was scraped again and centrifuged, and then suspended in HAM F12 medium containing 10% Fetal Bovine Serum supplemented with 500 μg/ml of GENETICIN (produced by Life Technologies, Inc., USA) and 250 μg/ml of ZEOCIN (produced by Invitrogen, USA). The suspension was diluted to the density of 10^4 cells/ml, and inoculated to a 96-well plate (produced by Corning Costar Corporation, USA), which was cultured in a CO2 gas incubator at 37° C., whereby obtaining a GENETICIN- and ZEOCIN-resistant transformant.
Subsequently, after the transformant cell line thus obtained was cultured in a 24-well plate (produced by Corning Costar Corporation, USA), selected was a cell line, PPARγ:RXRα:4ERPP/CHO-K1 cell, in which the luciferase was expressed and induced by addition of 10 μM pioglitazone hydrochloride.

KKAY mice = assay: Hypoglycemic and hypolipidemic actions in mice (Test Example 1); type: in vivo; settings: Mus musculus, po, 96 h, 0.005% in powdery diet, four days
From the text: Test compounds were mixed in a powdery diet (CE-2, Japan Clea) at the concentration of 0.01% (compounds of Examples 7, 26, 29, 32) or 0.005% (compounds of Examples 1, 11, 15, 18, 24, 36, 37, 41, 48, 50, 51, 52, 58, 62, 79, 83, 88, 90, 91, 92, 93, 97, 107, 110, 115, 119, 122, 125, 129 and 130), and freely given to KKAY mice (11 to 12 weeks old, 5 mice in a group), a model of type 2 diabetes mellitus, for four days. During this period, water was given freely. Blood was sampled from orbital venous plexus, and glucose and triglyceride levels in plasma separated from blood were determined enzymatically using L type Wako Glu2 (Wako Pure Chemical Industries, Ltd.) or L type Wako TG.H (Wako Pure Chemical Industries, Ltd.), respectively.
In the Table, “hypoglycemic action (%)” means a percent reduction (%) of the glucose level in the test compound administration group when that of the test compound non-administration group is taken as 100%. In addition, the “hypolipidemic action (%)” means a percent reduction (%) of the triglyceride level in the test compound administration group when that of the test compound non-administration group is taken as 100%.

[1] = percent reduction of plasma glucose level vs non-administration group, read-out: hypoglycemic action (%)
[2] = percent reduction of plasma triglyceride level vs non-administration group, read-out: hypolipidemic action (%)

Row | Compound | EC50 (PPARγ-RXRα heterodimer) [nM] | melting point [°C] | inhibition in vivo at 0.005 % (KKAY mice; [1]) [%] | inhibition in vivo at 0.005 % (KKAY mice; [2]) [%]
1 | Cc1oc(-c2ccccc2)nc1CCc1nc(COc2ccccc2CC(=O)O)co1 [Example 99, 2-[2-[[2-[2-(5-methyl-2-phenyl-4-oxazolyl)ethyl]-4-oxazolyl]methoxy]phenyl]acetic acid] | 160 | 109 to 110 |  | 
2 | CCCc1oc(-c2ccccc2)nc1COc1ccc(COc2ccccc2CC(=O)O)cc1 [Example 85, 2-[2-[4-[(2-phenyl-5-propyl-4-oxazolyl)methoxy]benzyloxy]phenyl]acetic acid] | 260 | 129 to 130 |  | 
3 | Cc1oc(-c2ccco2)nc1COc1ccc(COc2ccccc2CC(=O)O)cn1 [Example 124] | 42 | 119 to 120 |  | 
4 | Cc1sc(-c2ccccc2)nc1COc1ccc(COc2ccccc2CC(=O)O)cn1 [Example 122, 2-[2-[[6-[(5-methyl-2-phenyl-4-thiazolyl)methoxy]-3-pyridyl]methoxy]phenyl]acetic acid] | 17 | 173 to 174 | 52 | 67
5 | Cc1oc(-c2ccccc2)nc1CCOc1ccc(COc2ccccc2CC(=O)O)cn1 [Example 119, 2-[2-[[6-[2-(5-methyl-2-phenyl-4-oxazolyl)ethoxy]-3-pyridyl]methoxy]phenyl]acetic acid] | 220 | 159 to 160 | 40 | 33
6 | Cc1oc(-c2ccccc2)nc1CN(C(=O)OC(C)(C)C)c1ccc(COc2ccccc2CC(=O)O)cc1 [Example 60, 2-[2-[4-[(t-butoxycarbonyl)[(5-methyl-2-phenyl-4-oxazolyl)methyl]amino]benzyloxy]phenyl]acetic acid] | 6.1 |  |  | 
7 | Cc1sc(-c2ccccc2)nc1CCOc1cc(COc2ccccc2CC(=O)O)on1 [Example 117, 2-[2-[[3-[2-(5-methyl-2-phenyl-4-thiazolyl)ethoxy]-5-isoxazolyl]methoxy]phenyl]acetic acid] |  | 159 to 160 |  | 
8 | Cc1oc(-c2ccccc2)nc1CCc1nc(COc2ccccc2CC(=O)O)cs1 [Example 103, 2-[2-[[2-[2-(5-methyl-2-phenyl-4-oxazolyl)ethyl]-4-thiazolyl]methoxy]phenyl]acetic acid] | 240 | 152 to 153 |  | 
9 | Cc1nn(-c2ccccn2)cc1COc1ccc(COc2ncccc2CC(=O)O)cc1 [Example 126, 2-[2-[4-[[3-methyl-1-(2-pyridyl)-1H-pyrazol-4-yl]methoxy]benzyloxy]-3-pyridyl]acetic acid] | 1700 | 150 to 151 |  | 
10 | CCOC(=O)CCc1ccc(OCc2ccc(OCc3nc(-c4ccccc4)oc3C)cc2)cc1OCC [Example 65, ethyl 3-[2-ethoxy-4-[4-[(5-methyl-2-phenyl-4-oxazolyl)methoxy]benzyloxy]phenyl]propionate] |  | 64 to 65 |  | 

Second part, led by results:

Row | EC50 (PPARγ-RXRα heterodimer) [nM] | melting point [°C] | Compound | inhibition in vivo at 0.005 % (KKAY mice; [1]) [%] | inhibition in vivo at 0.005 % (KKAY mice; [2]) [%]
11 | 940 | 135 to 136 | CCOc1cc(OCc2ccc(OCc3nc(-c4ccccc4)oc3C)cc2)ccc1CCC(=O)O [Example 66, 3-[2-ethoxy-4-[4-[(5-methyl-2-phenyl-4-oxazolyl)methoxy]benzyloxy]phenyl]propionic acid] |  | 
12 | 330 | 122 to 123 | CCOc1cc(OCc2cccc(OCc3nc(-c4ccccc4)oc3C)c2)ccc1CCC(=O)O [Example 71, 3-[2-ethoxy-4-[3-[(5-methyl-2-phenyl-4-oxazolyl)methoxy]benzyloxy]phenyl]propionic acid] |  | 
13 | 62 | 128 to 129 | Cc1oc(-c2ccccc2)nc1COc1cc(COc2cccc(CC(=O)O)c2)on1 [Example 81, 2-[3-[3-(5-methyl-2-phenyl-4-oxazolylmethoxy)-5-isoxazolylmethloxy]phenyl]acetic acid] |  | 
14 | 110 | 114 to 115 | COc1ccc(COc2cccc(CC(=O)O)c2)cc1OCc1nc(-c2ccccc2)oc1C [Example 132, 3-[4-methoxy-3-[(2-phenyl-5-methyl-4-oxazolyl)methoxy]benzyloxy]phenylacetic acid] |  | 
15 | 190 | 143 to 144 | Cc1oc(-c2ccccc2)nc1COc1cncc(COc2cccc(CC(=O)O)c2)c1 [Example 78, 2-[3-[5-[(5-methyl-2-phenyl-4-oxazolyl)methoxy]-3-pyridylmethoxy]phenyl]acetic acid] |  | 
16 | 43 | 127 to 128 | Cc1oc(-c2ccccc2)nc1CCc1nc(COc2cccc(CC(=O)O)c2)co1 [Example 101, 2-[3-[[2-[2-(5-methyl-2-phenyl-4-oxazolyl)ethyl]-4-oxazolyl]methoxy]phenyl]acetic acid] |  | 
17 |  | 98 to 99 | Cc1oc(-c2ccccc2)nc1COc1ccc(COc2ccccc2CCC(=O)O)cc1 [Example 13, 3-[2-[4-[(5-methyl-2-phenyl-4-oxazolyl)methoxy]benzyloxy]phenyl]propionic acid] |  | 
18 |  | 134 to 135 | Cc1oc(-c2ccccc2)nc1CCOc1ccc(COc2ncccc2CC(=O)O)cc1 [Example 111, 2-[2-[4-[2-(5-methyl-2-phenyl-4-oxazolyl)ethoxy]benzyloxy]-3-pyridyl]acetic acid] |  | 
